Measurements published in PubChem BioAssay (NCI).
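Values below derive from 48-hour exposures of cells grown in 96-well plates, with endpoints linearly interpolated between the two concentrations bracketing the appropriate inhibition level. TGI: concentration producing complete growth inhibition.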

Columns and labels:
Assay in all cases: inhibition of tumour cell growth, NCI panel, 48 h
786-0 renal = tested on: 786-0 renal
A498 renal = tested on: A498 renal
A549 NSCLC = tested on: A549 NSCLC
ACHN renal = tested on: ACHN renal
BT-549 breast = tested on: BT-549 breast
CAKI-1 renal = tested on: CAKI-1 renal
CCRF-CEM leukemia = tested on: CCRF-CEM leukemia
COLO 205 colon = tested on: COLO 205 colon
DU-145 prostate = tested on: DU-145 prostate
EKVX NSCLC = tested on: EKVX NSCLC
HCC-2998 colon = tested on: HCC-2998 colon
HCT-116 colon = tested on: HCT-116 colon
HCT-15 colon = tested on: HCT-15 colon
HL-60(TB) leukemia = tested on: HL-60(TB) leukemia
HOP-62 NSCLC = tested on: HOP-62 NSCLC
HOP-92 NSCLC = tested on: HOP-92 NSCLC
HS 578T breast = tested on: HS 578T breast
HT29 colon = tested on: HT29 colon
IGROV1 ovarian = tested on: IGROV1 ovarian
K-562 leukemia = tested on: K-562 leukemia
KM12 colon = tested on: KM12 colon
LOX IMVI melanoma = tested on: LOX IMVI melanoma
M14 melanoma = tested on: M14 melanoma
MALME-3M melanoma = tested on: MALME-3M melanoma
MCF7 breast = tested on: MCF7 breast
MDA-MB-231 breast = tested on: MDA-MB-231 breast
MDA-N = tested on: MDA-N
MOLT-4 leukemia = tested on: MOLT-4 leukemia
NCI-H226 lung = tested on: NCI-H226 lung
NCI-H23 lung = tested on: NCI-H23 lung
NCI-H460 lung = tested on: NCI-H460 lung
NCI-H522 lung = tested on: NCI-H522 lung
NCI/ADR-RES ovarian = tested on: NCI/ADR-RES ovarian
OVCAR-3 ovarian = tested on: OVCAR-3 ovarian
OVCAR-4 ovarian = tested on: OVCAR-4 ovarian
OVCAR-5 ovarian = tested on: OVCAR-5 ovarian
OVCAR-8 ovarian = tested on: OVCAR-8 ovarian
PC-3 prostate = tested on: PC-3 prostate
RPMI-8226 leukemia = tested on: RPMI-8226 leukemia
RXF 393 renal = tested on: RXF 393 renal
SF-268 CNS = tested on: SF-268 CNS
SF-295 CNS = tested on: SF-295 CNS
SK-MEL-2 melanoma = tested on: SK-MEL-2 melanoma
SK-MEL-28 melanoma = tested on: SK-MEL-28 melanoma
SK-MEL-5 melanoma = tested on: SK-MEL-5 melanoma
SK-OV-3 ovarian = tested on: SK-OV-3 ovarian
SN12C renal = tested on: SN12C renal
SNB-19 CNS = tested on: SNB-19 CNS
SNB-75 CNS = tested on: SNB-75 CNS
SR leukemia = tested on: SR leukemia
SW-620 colon = tested on: SW-620 colon
T-47D breast = tested on: T-47D breast
TK-10 renal = tested on: TK-10 renal
U251 CNS = tested on: U251 CNS
UACC-257 melanoma = tested on: UACC-257 melanoma
UACC-62 melanoma = tested on: UACC-62 melanoma
UO-31 renal = tested on: UO-31 renal

Measured: TGI

O=c1c2c3c(sc2nc(CN2CCNCC2)n1-c1ccccc1)CCCC3
82.9 µM: OVCAR-4 ovarian
> 100 µM: 786-0 renal | A498 renal | A549 NSCLC | ACHN renal | BT-549 breast | CAKI-1 renal | CCRF-CEM leukemia | COLO 205 colon | DU-145 prostate | EKVX NSCLC | HCC-2998 colon | HCT-116 colon | HCT-15 colon | HL-60(TB) leukemia | HOP-62 NSCLC | HOP-92 NSCLC | HS 578T breast | HT29 colon | IGROV1 ovarian | K-562 leukemia | KM12 colon | LOX IMVI melanoma | M14 melanoma | MALME-3M melanoma | MCF7 breast | MDA-MB-231 breast | MDA-N | MOLT-4 leukemia | NCI-H226 lung | NCI-H23 lung | NCI-H460 lung | NCI-H522 lung | NCI/ADR-RES ovarian | OVCAR-3 ovarian | OVCAR-5 ovarian | OVCAR-8 ovarian | PC-3 prostate | RPMI-8226 leukemia | RXF 393 renal | SF-268 CNS | SF-295 CNS | SK-MEL-2 melanoma | SK-MEL-28 melanoma | SK-MEL-5 melanoma | SK-OV-3 ovarian | SN12C renal | SNB-19 CNS | SNB-75 CNS | SR leukemia | SW-620 colon | T-47D breast | TK-10 renal | U251 CNS | UACC-257 melanoma | UACC-62 melanoma | UO-31 renal
